Measured values taken from patent US12156920B2, “Double-labeled probe for molecular imaging and use thereof” (Deutsches Krebsforschungszentrum, priority 2017, dated 2024).
“And” between values parts separate entries of the source, which are not always exact repeats. Equal entries are not always repeated.

Columns and labels:
PSMA+ LNCaP cells = assay: Internalization experiments (specific cell surface bound and internalized fractions); assay type: cell-based; conditions: 68Ga-labeled compound 30 nM, 45 min
Description: (§1) PSMA^+ LNCaP cells (ATCC CRL-1740) were cultured in RPMI medium supplemented with 10% fetal calf serum and 2 mmol/L L-glutamine (all from PAA). Cells were grown at 37° C. in humidified air with 5% CO2 and were harvested using trypsin-ethylenediaminetetraacetic acid (trypsin-EDTA; 0.25% trypsin, 0.02% EDTA, Invitrogen).
For internalization experiments, 10^5 cells per well were seeded in poly-L-lysine coated 24-well cell culture plates 24 h before incubation. After washing, the cells were incubated with 30 nM of the radiolabeled compound for 45 min at 37° C. and at 4° C., respectively. Cellular uptake was terminated by washing 3 times with 1 mL of ice-cold PBS. To remove surface-bound radioactivity, cells were incubated twice with 0.5 mL glycine-HCl in PBS (50 mM, pH=2.8) for 5 min. The cells were washed with 1 mL of ice-cold PBS and lysed using 0.3 N NaOH (0.5 mL). The surface-bound and the internalized fractions were measured in a gamma counter. The cell uptake was calculated as percent of the initially added radioactivity bound to 10^5 cells [% ID/10^5 cells].

[1] = system: LNCaP-tumor bearing balb/c nu/nu mice; assay: Biodistribution (organ distribution) of 68Ga-labeled compounds; assay type: in vivo; conditions: 68Ga labeled
Description: The precursor peptides [1 nmol in HEPES buffer (580 mg/ml), 90 μL] were added to 40 μL [^68Ga]Ga^3+ eluate (˜40 MBq). The pH was adjusted to 3.8 using 30% NaOH and 10% NaOH, respectively. The reaction mixture was incubated at 98° C. for 10 minutes. The radiochemical yield (RCY) was determined by HPLC. For the experimental tumor models 5×10^6 cells of LNCaP (in 50% Matrigel; Becton Dickinson, Heidelberg, Germany) were subcutaneously inoculated into the right trunk of 7- to 8-week-old male BALB/c nu/nu mice (Charles River). The tumors were allowed to grow until approximately 1 cm^3 in size. The ^68Ga-labeled compounds were injected into a tail vein (1-2 MBq; 60 pmol). […] Organs of interest were dissected, blotted dry, and weighed. The radioactivity was measured using a gamma counter and calculated as % ID/g. All animal experiments complied with the current laws of the Federal Republic of Germany.

PSMA = biological target: T1, PSMA (Homo sapiens, UniProt Q04609); assay: Competitive cell binding assay on LNCaP cells (PSMA binding affinity); conditions: competition against 0.2 nM 68Ga-labeled PSMA-10
T1 construct: endogenous in cells; host or cells: LNCaP cells (ATCC CRL-1740)
Description: as §1
The competitive cell binding assay and internalization experiments were performed as described previously (4). Briefly, the cells (10^5 per well) were incubated with a 0.2 nM solution of ^68Ga-labeled radioligand [Glu-urea-Lys(Ahx)]2-HBED-CC (PSMA-10, precursor ordered from ABX, Radeberg, Germany) in the presence of 12 different concentrations of analyte (0-5000 nM, 100 μL/well). After incubation, the mixture was removed and the wells were washed 3 times with PBS using a multiscreen vacuum manifold (Millipore, Billerica, Mass.). Cell-bound radioactivity was measured using a gamma counter (Packard Cobra II, GMI, Minnesota, USA). The 50% inhibitory concentration (IC50) values were calculated by fitting the data using a nonlinear regression algorithm (GraphPad Software).

T1 sequence (Q04609 whole entry): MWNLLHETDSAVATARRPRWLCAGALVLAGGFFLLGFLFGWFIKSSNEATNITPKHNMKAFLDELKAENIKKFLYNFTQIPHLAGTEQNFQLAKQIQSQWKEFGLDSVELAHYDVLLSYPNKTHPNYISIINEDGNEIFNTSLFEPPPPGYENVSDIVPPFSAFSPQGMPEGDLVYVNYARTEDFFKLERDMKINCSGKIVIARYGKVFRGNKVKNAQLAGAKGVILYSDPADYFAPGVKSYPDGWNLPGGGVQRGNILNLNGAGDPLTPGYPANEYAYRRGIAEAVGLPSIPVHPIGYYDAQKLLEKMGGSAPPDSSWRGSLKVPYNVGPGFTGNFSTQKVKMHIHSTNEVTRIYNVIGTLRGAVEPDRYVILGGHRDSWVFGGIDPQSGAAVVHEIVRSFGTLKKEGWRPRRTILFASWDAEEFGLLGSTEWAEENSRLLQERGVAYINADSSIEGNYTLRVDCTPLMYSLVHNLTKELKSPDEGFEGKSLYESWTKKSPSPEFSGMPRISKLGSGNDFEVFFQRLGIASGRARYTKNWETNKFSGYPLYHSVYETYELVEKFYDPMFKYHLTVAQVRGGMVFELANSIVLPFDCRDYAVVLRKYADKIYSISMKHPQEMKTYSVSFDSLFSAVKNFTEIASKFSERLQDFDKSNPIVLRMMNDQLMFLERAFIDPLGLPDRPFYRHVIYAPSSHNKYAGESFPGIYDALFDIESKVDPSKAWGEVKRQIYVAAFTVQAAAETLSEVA

## O=C(O)CCc1ccc(O)c(CN(CCN(CC(=O)O)Cc2cc(CCC(=O)NCCCCCC(=O)NCCCCC(NC(=O)NC(CCC(=O)O)C(=O)O)C(=O)O)ccc2O)CC(=O)O)c1 (centres unmarked) [PSMA-11, Glu-urea-Lys-(Ahx)-HBED-CC, reference compound]
PSMA+ LNCaP cells
  Specific cell surface bound: 2.31 ± 0.61 % ID/10^5 cells
  Specific internalized: 3.57 ± 0.51 % ID/10^5 cells
[1]
  Organ distribution Liver: 0.34 % ID/g
  Organ distribution Lung: 1.19 % ID/g
[1]; 1 h p.i.
  Tumor-to-Organ ratio T/Blood: 9.23
  Tumor-to-Organ ratio T/Brain: 12.23
  Tumor-to-Organ ratio T/Heart: 5.89
  Tumor-to-Organ ratio T/Intestine: 4.29
  Tumor-to-Organ ratio T/Kidney: 0.04
  Tumor-to-Organ ratio T/Liver: 3.42
  Tumor-to-Organ ratio T/Lung: 2.07
  Tumor-to-Organ ratio T/Muscle: 4.89
  Tumor-to-Organ ratio T/Spleen: 0.27
[1]; 1 h p.i., LNCaP tumor
  Organ distribution Tumor (tumor accumulation): 4.89±1.34 % ID/g and 4.89 % ID/g
[1]; 1 h p.i., tail vein
  Organ distribution Blood: 0.53 % ID/g
  Organ distribution Brain: 0.40 % ID/g
  Organ distribution Heart: 0.83 % ID/g
  Organ distribution Intestine: 1.14 % ID/g
  Organ distribution Kidney: 139.44 % ID/g
  Organ distribution Liver: 1.43 % ID/g
  Organ distribution Lung: 2.36 % ID/g
  Organ distribution Muscle: 1.00 % ID/g
  Organ distribution Spleen: 17.88 % ID/g
[1]; 2 h p.i.
  Organ distribution Blood: 0.32 % ID/g
  Organ distribution Brain: 0.23 % ID/g
  Organ distribution Heart: 0.31 % ID/g
  Organ distribution Intestine: 1.19 % ID/g
  Organ distribution Kidney: 129.73 % ID/g
  Organ distribution Muscle: 2.06 % ID/g
  Organ distribution Spleen: 12.41 % ID/g
[1]; 2 h p.i., LNCaP tumor
  Organ distribution Tumor: 6.09 % ID/g
PSMA
  Ki: 9.82 ± 1.26 nM
